This passage reports IC50 and EC50 results from ChEMBL document CHEMBL1201862, “PubChem BioAssay data set” (2004).

The source made the active and inactive calls.

One assay deals with HEK293. The assay can be described thus: cytotoxicity in HEK293T NF-kB-Luc cells, SAR follow-up, cytotoxicity control for NF-kB activator project, cell-based, resazurin fluorescence (AID 493251). Format: functional. To be noted: Homo sapiens. A general note: Alamar Blue is a resazurin reagent that responds to reducing activity.
Another assay deals with T1, Exodeoxyribonuclease V (Escherichia coli (strain K12), UniProt P04993+P07648+P08394).
T1 sequence (P04993 whole entry): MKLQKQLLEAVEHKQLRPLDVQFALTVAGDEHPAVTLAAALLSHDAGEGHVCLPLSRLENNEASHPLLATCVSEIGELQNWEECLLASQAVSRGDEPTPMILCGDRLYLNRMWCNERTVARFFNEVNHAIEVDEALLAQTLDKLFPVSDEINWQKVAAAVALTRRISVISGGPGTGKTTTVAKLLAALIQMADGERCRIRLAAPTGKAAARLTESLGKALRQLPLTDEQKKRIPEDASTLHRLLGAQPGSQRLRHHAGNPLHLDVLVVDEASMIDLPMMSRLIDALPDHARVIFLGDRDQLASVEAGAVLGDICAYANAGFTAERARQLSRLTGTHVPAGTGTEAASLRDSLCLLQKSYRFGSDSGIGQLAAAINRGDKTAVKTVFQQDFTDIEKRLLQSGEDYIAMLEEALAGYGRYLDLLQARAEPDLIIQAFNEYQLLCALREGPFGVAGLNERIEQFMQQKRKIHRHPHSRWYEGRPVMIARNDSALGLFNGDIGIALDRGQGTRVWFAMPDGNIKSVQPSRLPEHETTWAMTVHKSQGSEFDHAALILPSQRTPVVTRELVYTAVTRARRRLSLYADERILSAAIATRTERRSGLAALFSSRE
T1 sequence (P07648 whole entry): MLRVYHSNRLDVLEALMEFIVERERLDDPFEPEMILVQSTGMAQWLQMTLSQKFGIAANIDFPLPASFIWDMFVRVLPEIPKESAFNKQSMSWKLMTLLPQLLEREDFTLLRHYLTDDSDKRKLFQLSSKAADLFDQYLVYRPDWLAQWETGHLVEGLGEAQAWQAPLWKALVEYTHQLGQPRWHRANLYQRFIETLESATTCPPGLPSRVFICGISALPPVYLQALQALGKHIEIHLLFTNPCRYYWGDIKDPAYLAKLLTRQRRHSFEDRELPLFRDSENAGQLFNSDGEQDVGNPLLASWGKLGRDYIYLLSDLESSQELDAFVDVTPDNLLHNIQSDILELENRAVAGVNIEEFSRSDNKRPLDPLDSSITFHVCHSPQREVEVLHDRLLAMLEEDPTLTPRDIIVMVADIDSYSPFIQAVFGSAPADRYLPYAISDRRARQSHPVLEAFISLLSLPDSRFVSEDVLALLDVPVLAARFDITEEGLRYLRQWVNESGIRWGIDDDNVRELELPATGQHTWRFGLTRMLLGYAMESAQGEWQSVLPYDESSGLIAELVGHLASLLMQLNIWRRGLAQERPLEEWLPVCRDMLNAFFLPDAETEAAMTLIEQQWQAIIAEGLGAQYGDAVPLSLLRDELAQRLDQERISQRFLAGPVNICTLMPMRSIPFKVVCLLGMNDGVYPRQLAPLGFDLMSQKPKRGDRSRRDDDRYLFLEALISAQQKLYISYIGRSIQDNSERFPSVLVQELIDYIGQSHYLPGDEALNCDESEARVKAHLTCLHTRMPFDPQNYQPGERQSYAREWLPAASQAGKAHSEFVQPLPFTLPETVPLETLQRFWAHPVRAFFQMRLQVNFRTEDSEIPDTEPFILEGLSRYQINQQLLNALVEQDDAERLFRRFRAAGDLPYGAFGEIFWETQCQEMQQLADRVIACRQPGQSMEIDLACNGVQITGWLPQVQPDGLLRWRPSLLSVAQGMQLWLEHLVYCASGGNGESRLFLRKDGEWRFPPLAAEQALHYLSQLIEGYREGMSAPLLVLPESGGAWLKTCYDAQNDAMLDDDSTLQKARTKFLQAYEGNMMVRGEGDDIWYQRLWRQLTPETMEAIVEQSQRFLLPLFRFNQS
T1 sequence (P08394 whole entry): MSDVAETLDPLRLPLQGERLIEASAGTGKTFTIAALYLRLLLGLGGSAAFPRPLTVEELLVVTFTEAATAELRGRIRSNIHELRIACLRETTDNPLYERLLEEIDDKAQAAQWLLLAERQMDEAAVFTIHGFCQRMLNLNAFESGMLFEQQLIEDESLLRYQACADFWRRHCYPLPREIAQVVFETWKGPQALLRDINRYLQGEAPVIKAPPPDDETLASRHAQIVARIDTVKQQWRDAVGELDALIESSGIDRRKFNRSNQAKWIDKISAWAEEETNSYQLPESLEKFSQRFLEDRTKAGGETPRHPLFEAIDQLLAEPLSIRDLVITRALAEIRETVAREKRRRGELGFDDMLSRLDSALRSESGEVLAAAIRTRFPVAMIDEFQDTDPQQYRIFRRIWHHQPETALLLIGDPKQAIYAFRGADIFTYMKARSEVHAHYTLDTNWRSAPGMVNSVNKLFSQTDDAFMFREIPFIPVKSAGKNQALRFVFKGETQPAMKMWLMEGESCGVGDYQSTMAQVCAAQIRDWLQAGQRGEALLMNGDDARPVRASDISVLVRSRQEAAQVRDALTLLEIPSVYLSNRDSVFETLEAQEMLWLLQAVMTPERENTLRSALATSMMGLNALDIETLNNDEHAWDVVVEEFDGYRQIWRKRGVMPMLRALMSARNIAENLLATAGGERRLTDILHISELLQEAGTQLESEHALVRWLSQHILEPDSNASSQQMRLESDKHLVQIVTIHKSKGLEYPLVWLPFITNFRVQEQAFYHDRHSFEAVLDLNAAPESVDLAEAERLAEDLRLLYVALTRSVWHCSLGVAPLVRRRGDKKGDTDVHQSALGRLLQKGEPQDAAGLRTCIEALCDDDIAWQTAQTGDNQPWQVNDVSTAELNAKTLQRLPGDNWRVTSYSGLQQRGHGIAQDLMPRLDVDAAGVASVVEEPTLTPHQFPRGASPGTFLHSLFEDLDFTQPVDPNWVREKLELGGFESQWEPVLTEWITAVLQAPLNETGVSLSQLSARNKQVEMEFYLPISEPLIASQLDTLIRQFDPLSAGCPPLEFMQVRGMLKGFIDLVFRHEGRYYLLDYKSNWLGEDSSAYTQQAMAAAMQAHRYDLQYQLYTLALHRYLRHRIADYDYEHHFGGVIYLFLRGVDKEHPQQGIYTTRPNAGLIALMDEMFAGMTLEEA
The experiment in a line: E. coli RecBCD inhibitors, dose response, counter-screen for AddAB inhibitor project, absorbance, V66 E. coli, mutant T4 phage (AID 492957). Format: functional, cell-based, Escherichia coli str. K-12 substr. MG1655.

For a further assay, the system named is BJ. The experiment in a line: cytotoxicity toward Ras-transformed BJeLR fibroblasts, dose response, cell-based, alamar blue fluorescence, cherrypicked samples (AID 2631).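 Further: confirmatory dose-response assay in RAS-dependent BJ fibroblasts engineered with TERT, LT and ST, with cytotoxicity read by fluorescence.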 Format: functional. To be noted: Homo sapiens.
The nature of assay [1]: NIH-3T3 fibroblast cytotoxicity, dose response, cytotoxicity control, cell-based, fluorescence, Alamar Blue, secondary assay (AID 2327).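 Further: NIH-3T3 mouse fibroblasts cultured with fluconazole at 8 µg/mL.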 Type of assay: functional.
The nature of assay [2]: Luminescence-based dose response cell-based high throughput screening assay for cytotoxic compounds using the IEC-6 intestinal epithelial cell line. [Related pubchem assays: 1858 (Summary AID.), 1825 (Counterscreen.), 1907 (Confirmation screen.)]. Format: functional.

The IC50 is the concentration that inhibits the measured activity by half. The term EC50 denotes the concentration that produces a half-maximal response. For `CCCCC(=O)NC(c1ccc(N(C)C)cc1)c1ccc2cccnc2c1O` (stereo not given), the IC50 is 41.2 µM (inactive) in the assay with HEK293, > 119 µM (inactive) at Exodeoxyribonuclease V and 1.72 µM (active) in assay [2]. For the same compound, the EC50 with BJ is 0.465 µM (active); in assay [1], 28.4 µM (inconclusive).
